Assay results published in patent publication US7175850B2, “Formulation for topical non-invasive application in vivo” (Idea AG, priority 1998, dated 2007).

Legend:
[1] = Biodistribution after epicutaneous application (blood, skin); type: in vivo, mice
Procedure: Drug in the Carrier (Transfersome) Suspensions. The formulations used in the biodistribution studies were labelled with the tritiurated corticosteroids purchased from Amersham or ICN. Preparation of the formulations for the use in animals was done by dissolving all lipoids in methanol/chloroform (1/1 v/v) in the appropriate amounts and preparing a dry mixed lipid film under vacuum (≦10 Pa;≧12 h). The use of potentially harmful organic solvents or drying was entirely avoided in the manufacturing of human medications.
In vivo Experiments mainly involved 8–12 weeks old NMRI mice which were kept under standard laboratory conditions (3–5 per suspending cage; standard chew and water ad libitum; 12 h light/dark regime). Stressful or painful manipulations were always carried out under general injection anesthesia.
Biodistribution. The hair at the chosen skin site was trimmed with a pair of scissors to the length of ≦2 mm one day before experimentation. The precise application site on the upper back was marked and the appropriate amount (0.5 μL to 25 μL) and drug formulation was applied with a micro-pipette on the skin. After uniform distribution with the side of the same pipette tip, the application was left to dry.
Blood samples (20 μL) were taken from the tail end with a glass capillary. After 8 hours the animals were killed by heart puncture and the treated skin area was undermined and carefully excised. The outermost layers of the stratum corneum were collected by five tape-strippings. Subsequently, the residual skin tissue and other organ samples were prepared, destained and used for radioactivity counting. For the experiments with porcine skin, […] of full thickness organ was excised and fixed on a wet tissue. Several test areas of 1 cm^2 were then marked and treated further as in vivo.

[2] = Ratio of corticosteroid concentration in blood and inner skin, calculated for humans
Procedure: The area dose will normally be between 0.1 μg cm^−2 and 1 μg cm^−2, for the high and low potency drugs, respectively.

Row | SMILES | Ratio of corticosteroid concentration in the blood and in the 'inner skin' (mouse) ([1]; dose 0.5 μg/cm^−2, measured) | Ratio of corticosteroid concentration in the blood and in the 'inner skin' (mouse) ([1]; dose 4.9 μg/cm^−2, measured) | Ratio of corticosteroid concentration in the blood and in the 'inner skin' (mouse) ([1]; dose 49.5 μg/cm^−2, measured) | Ratio of corticosteroid concentration in the blood and in the 'inner skin' (human) ([2]; dose 1.3 μg/cm^−2) | Ratio of corticosteroid concentration in the blood and in the 'inner skin' (human) ([2]; dose 13.2 μg/cm^−2) | Ratio of corticosteroid concentration in the blood and in the 'inner skin' (human) ([2]; dose 20.6 μg/cm^−2) | Ratio of corticosteroid concentration in the blood and in the 'inner skin' (mouse) ([1]; dose 1.3 μg/cm^−2, measured) | Ratio of corticosteroid concentration in the blood and in the 'inner skin' (mouse) ([1]; dose 13.2 μg/cm^−2, measured) | Ratio of corticosteroid concentration in the blood and in the 'inner skin' (mouse) ([1]; dose 20.6 μg/cm^−2, measured)
1 | C[C@@H]1C[C@H]2[C@@H]3CCC4=CC(=O)C=C[C@]4(C)[C@@]3(F)[C@@H](O)C[C@]2(C)[C@@]1(O)C(=O)CO [Dexamethasone, dexamethasone] | 0 | 0.1 | 0.25 |  |  |  |  |  | 
2 | C[C@]12CCC(=O)C=C1CC[C@@H]1[C@@H]2[C@@H](O)C[C@@]2(C)[C@H]1CC[C@]2(O)C(=O)CO [Hydrocortisone, hydrocortisone] | 0 | 0.012 | 0.015 |  |  |  |  |  | 
3 | CC1(C)O[C@@H]2C[C@H]3[C@@H]4CCC5=CC(=O)C=C[C@]5(C)[C@@]4(F)[C@@H](O)C[C@]3(C)[C@]2(C(=O)CO)O1 [Triamcinolone-acetonide, triamcinolone-acetonide] |  |  |  | 0.00007 | 0.00011 | 0.0001 | 0.02 | 0.04 | 0.03
